Reference: PMC10518257 (Nature Cancer, 2023)
Values joined by “and” are separate entries in the source; they are usually repeats but may differ in a detail not shown here. Equal entries are not always repeated.

Tests used:
LUAD-0057AS1 PDX = assay: PDX efficacy study; conditions: 50 mg/kg QD
LUAD-0087AS2 cells = assay: Growth inhibition (alamarBlue, 96 h); type: cell-based, human; conditions: for raw viability signal (Source Data Fig. 3b-c): LUAD-0087AS2, replicate sets
ECLC5 xenografts = assay: Subcutaneous xenograft efficacy study; conditions: 100 mg/kg QD
[1] = end of study, individual tumors

With `COc1cc2c(Nc3ccc(Br)cc3F)ncnc2cc1OCC1CCN(C)CC1` [Vandetanib] the “Area Under Curve of tumor growth, Mean” value (LUAD-0057AS1 PDX) was -2007, the Tumor volume (LUAD-0057AS1 PDX; day 0, individual animals) was 143.69 mm3 (3×) and 139.24 mm3 (2×) and 136.86 mm3 and 132.84 mm3 and 124.41 mm3 and the Tumor volume (LUAD-0057AS1 PDX; day 3, individual animals) was 79.85 mm3 and 78.99 mm3 (2×) and 80.35 mm3 and 89.72 mm3 and 82.12 mm3 and 83.53 mm3 (2×). For the same molecule, the Tumor volume (LUAD-0057AS1 PDX; day 7, individual animals) was 65.45 mm3 (5×) and 66.76 mm3 (2×) and 69.46 mm3, the Tumor volume (LUAD-0057AS1 PDX; day 10, individual animals) was 52.07 mm3 (2×) and 58.99 mm3 and 57.83 mm3 (3×) and 56.67 mm3 and 49.83 mm3 and the Tumor volume (LUAD-0057AS1 PDX; day 14, individual animals) was 52.07 mm3 (2×) and 55.52 mm3 and 57.83 mm3 (2×) and 56.67 mm3 and 49.83 mm3. For the same molecule, the Tumor volume (LUAD-0057AS1 PDX; day 19, individual animals) was 0 mm3, the Tumor volume (LUAD-0057AS1 PDX; day 23, individual animals) was 0 mm3 and the “Change in Tumor Volume” value (LUAD-0057AS1 PDX; [1]) was -100%. For the same molecule, the IC50 (LUAD-0087AS2 cells; Homo sapiens, read-out: IC50 for Inhibition of Growth (95% CI), LUAD-0087AS2, alamarBlue, 96 h) was 264 nM, the “raw viability signal (Source Data Fig. 3b-c)” value (shortened to “raw viability signal”) (LUAD-0087AS2 cells; 0.01 nM) was 12332.1 and 13934.5 and 13930.1 and the “raw viability signal” value (LUAD-0087AS2 cells; 0.1 nM) was 10316.9 and 14234.5 and 13979.9. For the same molecule, the “raw viability signal” value (LUAD-0087AS2 cells; 1 nM) was 14707.2 and 14551.9 and 13357, the “raw viability signal” value (LUAD-0087AS2 cells; 10 nM) was 9639.26 and 14042.7 and the “raw viability signal” value (LUAD-0087AS2 cells; 100 nM) was 8268.62 and 14329.9 and 11925.1. The “raw viability signal” value (LUAD-0087AS2 cells; 1000 nM) was 3107.74 and 4188.25 and 2159.6 and 1975.84, the “raw viability signal” value (LUAD-0087AS2 cells; 10000 nM) was 1739.1 and 865.962 and 878.418 and 892.669 and the “Area Under Curve of tumor growth, Mean” value (ECLC5 xenografts) was -1273. The Tumor volume (ECLC5 xenografts; day 0, individual animals) was 83.83 mm3 (2×) and 88.56 mm3 and 87.03 mm3, the Tumor volume (ECLC5 xenografts; day 4, individual animals) was 55.4 mm3 (2×) and 45.5 mm3 and 53.01 mm3 and 50.68 mm3 and the Tumor volume (ECLC5 xenografts; day 7, individual animals) was 42.25 mm3 and 37.7 mm3 and 44.53 mm3 and 41.37 mm3 and 39.37 mm3. For the same molecule, the Tumor volume (ECLC5 xenografts; day 11, individual animals) was 38.54 mm3 and 37.7 mm3 and 44.53 mm3 and 33.69 mm3 and 31.89 mm3, the Tumor volume (ECLC5 xenografts; day 14, individual animals) was 36.02 mm3 and 36.86 mm3 and 35.19 mm3 and 28.86 mm3 and 23.59 mm3 and the Tumor volume (ECLC5 xenografts; day 19, individual animals) was 34.35 mm3 and 31 mm3 and 35.19 mm3 and 28.86 mm3 and 18.85 mm3. For the same molecule, the Tumor volume (ECLC5 xenografts; day 22, individual animals) was 0 mm3 (4×) and 29.39 mm3, the Tumor volume (ECLC5 xenografts; day 25, individual animals) was 0 mm3 and the “Change in Tumor Volume” value (ECLC5 xenografts; [1]) was -100%.
